Results as given in US5164513A, “Imidazole derivative” (SS Pharmaceutical Co., Ltd., priority 1987, dated 1992).
Converted amounts (≈) assume the structure as drawn.

What was measured:
Format in all cases: cell-based
[1] = test system: Debaryomyces kloeckeri IFO 0015; assay: Antimicrobial activity (MIC); details: IFO0015
[2] = test system: Trichophyton mentagrophytes QM 248; assay: Antimicrobial activity (MIC); details: QM248
Sarcina lutea ATCC 9341 = assay: Antimicrobial activity (MIC); details: Micrococcus luteus, ATCC9341
[3] = test system: Trichophyton rubrum NHL J; assay: Antimicrobial activity (MIC)
[4] = test system: Staphylococcus aureus Terajima; assay: Antimicrobial activity (MIC)
[5] = test system: Bacillus subtilis ATCC 6633; assay: Antimicrobial activity (MIC); details: ATCC6633
[6] = test system: Microsporum audounii IFO 6074; assay: Antimicrobial activity (MIC); details: IFO6074
[7] = test system: Fusarium moniliforme IAM 5062; assay: Antimicrobial activity (MIC); details: Fusarium verticillioides, IAM5062
Candida albicans Yu-1200 = assay: Antimicrobial activity (MIC); details: YU1200
[8] = test system: Helminthosporium sesamum IAM 5012; assay: Antimicrobial activity (MIC); details: IAM5012
[9] = test system: Candida albicans NHL 4019; assay: Antimicrobial activity (MIC); details: NHL4019
Saccharomyces ruxii 6507 = assay: Antimicrobial activity (MIC)
[10] = test system: Staphylococcus epidermidis ATCC 12228; assay: Antimicrobial activity (MIC); details: ATCC12228
[11] = test system: Microsporum cookei IFO 8303; assay: Antimicrobial activity (MIC); details: Paraphyton cookei, IFO8303
[12] = test system: Epidermophyton floccosum IFO 9045; assay: Antimicrobial activity (MIC); details: IFO9045
[13] = test system: Staphylococcus aureus Smith; assay: Antimicrobial activity (MIC)
[14] = test system: Cladosporium fulvum IAM 5006; assay: Antimicrobial activity (MIC); details: Fulvia fulva, IAM5006
[15] = test system: Gibberella fujikuroi IAM 8046; assay: Antimicrobial activity (MIC); details: Fusarium fujikuroi, IAM8046
[16] = test system: Saccharomyces cerevisiae ATCC 9763; assay: Antimicrobial activity (MIC); details: ATCC9763
[17] = test system: Aspergillus oryzae IMF 4014; assay: Antimicrobial activity (MIC); details: IMF4014
[18] = test system: Pyricularia oryzae IAM 5016; assay: microbe, parasite or virus in culture; details: IAM5016
[19] = test system: Aspergillus niger ATCC 9642; assay: Antimicrobial activity (MIC); details: ATCC9642
[20] = test system: Micrococcus lysodeikticus IFO 3333; assay: Antimicrobial activity (MIC); details: Micrococcus luteus, IFO3333
[21] = test system: Staphylococcus aureus FDA 209P; assay: Antimicrobial activity (MIC); details: FDA209P
[22] = test system: Microsporum gypseum IFO 8231; assay: Antimicrobial activity (MIC); details: Nannizzia gypsea, IFO8231
[23] = test system: Trichophyton mentagrophytes IFO 5812; assay: Antimicrobial activity (MIC); details: IFO5812
[24] = test system: Streptococcus faecalis IFO 12964; assay: Antimicrobial activity (MIC); details: Enterococcus faecalis, IFO12964
[25] = test system: Trichophyton tonsurans IFO 5928; assay: Antimicrobial activity (MIC); details: IFO5928
[26] = test system: Penicillium chrysogenum ATCC 6010; assay: Antimicrobial activity (MIC); details: ATCC6010

Row | Compound | MIC [1] [µg/mL] | MIC [2] [µg/mL] | MIC (Sarcina lutea ATCC 9341) [µg/mL] | MIC [3] [µg/mL] | MIC [4] [µg/mL] | MIC [5] [µg/mL] | MIC [6] [µg/mL] | MIC [7] [µg/mL] | MIC (Candida albicans Yu-1200) [µg/mL] | MIC [8] [µg/mL] | MIC [9] [µg/mL] | MIC (Saccharomyces ruxii 6507) [µg/mL] | MIC [10] [µg/mL] | MIC [11] [µg/mL] | MIC [12] [µg/mL] | MIC [13] [µg/mL] | MIC [14] [µg/mL] | MIC [15] [µg/mL] | MIC [16] [µg/mL] | MIC [17] [µg/mL] | further results
1 | CCCCCCCCOc1ccccc1C(C)(O)Cn1ccnc1 (stereo not shown) [Compound 8] | 3.12 (≈ 9.44 µM) | 0.006 (≈ 0.0182 µM) | 0.2 (≈ 0.605 µM) | < 0.006 | 3.12 (≈ 9.44 µM) | 3.12 (≈ 9.44 µM) | < 0.006 | 3.12 (≈ 9.44 µM) | 12.5 (≈ 37.8 µM) | < 0.006 | 12.5 (≈ 37.8 µM) | 0.39 (≈ 1.18 µM) | 0.39 (≈ 1.18 µM) | 0.012 (≈ 0.0363 µM) | 0.1 (≈ 0.303 µM) | 3.12 (≈ 9.44 µM) | 0.78 (≈ 2.36 µM) | 0.78 (≈ 2.36 µM) | 0.025 (≈ 0.0756 µM) | < 0.006 | MIC [18]: < 0.006 µg/mL; MIC [19]: 0.025 µg/mL (≈ 0.0756 µM); MIC [20]: 1.56 µg/mL (≈ 4.72 µM); MIC [21]: 3.12 µg/mL (≈ 9.44 µM); MIC [22]: 0.006 µg/mL (≈ 0.0182 µM); MIC [23]: < 0.006 µg/mL; MIC [24]: 6.25 µg/mL (≈ 18.9 µM); MIC [25]: < 0.006 µg/mL; MIC [26]: 3.12 µg/mL (≈ 9.44 µM)
2 | CCCCCCCCCOc1ccccc1C(C)(O)Cn1ccnc1 (stereo not shown) [Compound 59] | 12.5 (≈ 36.3 µM) | < 0.006 | 0.05 (≈ 0.145 µM) | < 0.006 | 6.25 (≈ 18.1 µM) | 6.25 (≈ 18.1 µM) | < 0.006 | 6.25 (≈ 18.1 µM) | 25 (≈ 72.6 µM) | < 0.006 | 12.5 (≈ 36.3 µM) | 0.78 (≈ 2.26 µM) | 1.56 (≈ 4.53 µM) | 0.1 (≈ 0.29 µM) | 0.2 (≈ 0.581 µM) | 6.25 (≈ 18.1 µM) | 1.56 (≈ 4.53 µM) | 1.56 (≈ 4.53 µM) | 12.5 (≈ 36.3 µM) | < 0.006 | MIC [18]: < 0.006 µg/mL; MIC [19]: 0.1 µg/mL (≈ 0.29 µM); MIC [20]: 1.56 µg/mL (≈ 4.53 µM); MIC [21]: 6.25 µg/mL (≈ 18.1 µM); MIC [22]: < 0.006 µg/mL; MIC [23]: < 0.006 µg/mL; MIC [24]: 6.25 µg/mL (≈ 18.1 µM); MIC [25]: < 0.006 µg/mL; MIC [26]: 6.25 µg/mL (≈ 18.1 µM)
